# Reference: patent publication US12144881B2, “Cosmetic composition containing α-mangostin, method for preparation, and uses thereof” (priority 2018, dated 2024)
# How the values were obtained:
# [1] = UV absorption spectra in the UV wavelength region; type: physicochemical; conditions: FIG. 1, UVB 290-320 nm and UVA 320-400 nm
# Excerpt: The present inventors tested the UV absorbance of α-mangostin, butyl methoxydibenzoylmethane and octyl salicylate in the UV wavelength region separately. […] Therefore, the α-mangostin has obvious advantages over the sunscreen agent octyl salicylate, and has a part of the absorption band which can be complementary to that of octyl salicylate, enhancing the UVB protection effect and increasing the SPF value.
# [2] = Photolysis of butyl methoxydibenzoylmethane under sunlight and its inhibition by α-mangostin (absorbance at 357 nm); type: physicochemical; conditions: for M value: M=Bi/Ai, butyl methoxydibenzoylmethane remaining with α-mangostin vs control
# Method: Instrument and equipment: Model 751-GW spectrophotometer; and FA1004 electronic balance. Reagents: butyl methoxydibenzoylmethane, from Shanghai SIMP Co., Ltd.; and an α-mangostin sample. • (6) Formulation of standard stock solutions of butyl methoxydibenzoylmethane and the sample: 20.0 mg of butyl methoxydibenzoylmethane and α-mangostin were weighed separately, and diluted with a specific mixed solvent (an acetone-water mixed solvent with a ratio by volume of acetone to water of 5:1, hereinafter referred to as mixed solvent) to a volume of 10 ml. • (7) Formulation of reference solutions of butyl methoxydibenzoylmethane and the sample: The mixed solvent was used as the reference solution of butyl methoxydibenzoylmethane. 0.1 ml of the standard stock solution of the α-mangostin sample was drawn, and diluted with the mixed solvent to a volume of 10 ml, as the reference solution of the sample. • (8) Formulation of standard working solutions (20 μg/ml) of butyl methoxydibenzoylmethane and the sample: 0.1 ml of the standard stock solution of butyl methoxydibenzoylmethane was drawn and diluted with the mixed solvent to a volume of 10 ml. 0.1 ml aliquots of the standard stock solution of the α-mangostin sample were drawn separately, and added separately to 0.1 ml aliquots of the standard stock solution of butyl methoxydibenzoylmethane, and then diluted with the mixed solvent to a volume of 10 ml. • (9) Reference solutions and standard working solutions of different concentrations of rutin were formulated according to Steps (2) and (3). • (10) Determination of the photolysis rate and photolysis inhibition rate of butyl methoxydibenzoylmethane: The absorbance of the standard working solution of butyl methoxydibenzoylmethane and the absorbance of butyl methoxydibenzoylmethane in the α-mangostin sample were measured at 357 nm. Then they were subjected to the sunlight exposure, and the absorbance thereof was measured every day. The photolysis rate, the photolysis inhibition rate and the M value of butyl methoxydibenzoylmethane were calculated according to the following formulas: % Photolysis rate=(A0−Ai)/A0×100% % Photolysis inhibition rate=[1−(B0−Bi)/(A0−Ai)]×100 M=Bi/Ai In the formulas, A0 is the absorbance of the standard working solution of butyl methoxydibenzoylmethane; Ai is the absorbance of the standard working solution of butyl methoxydibenzoylmethane after i days of light exposure; B0 is the absorbance of butyl methoxydibenzoylmethane in the standard working solution of the α-mangostin sample; Bi is the absorbance of butyl methoxydibenzoylmethane in the standard working solution of the α-mangostin sample after i days of light exposure; and M is the ratio of the amount of butyl methoxydibenzoylmethane remaining in the α-mangostin sample to the amount of butyl methoxydibenzoylmethane remaining in the control sample without the sample added. For the above α-mangostin sample and butyl methoxydibenzoylmethane, each was determined for the photolysis inhibition rate or the photolysis rate at the same exposure time, to obtain the curve of light exposure time vs. photolysis inhibition rate of the α-mangostin sample (FIG. 3) and the curve of light exposure time vs. photolysis rate of butyl methoxydibenzoylmethane (FIG. 2).
# [3] = Oxygen Radical Absorbance Capacity (ORAC) assay against peroxyl radicals; conditions: trolox equivalent
# Method: (§1) Test Method: Oxygen Radical Absorbance Capacity (ORAC) Assay Specific method: An extraction solution containing a solubilizing compound was prepared, the sample was added to the extraction solution to extract the antioxidants present in the sample, and a fluorescent probe was added to the extract, a free radical generator was added to the extract, to detect the decay of the fluorescence intensity of the probe in the sample over time, and calculate the oxidation resistance of the sample based on the decay of the fluorescence intensity of the probe in the sample. The results of ORAC are expressed as micromole trolox equivalent (μmole TE)/gram. Trolox is a vitamin E analog, which is an antioxidant standard substance.
# [4] = Oxygen Radical Absorbance Capacity (ORAC) assay against hydroxyl radicals; conditions: trolox equivalent
# Method: as §1
# [5] = Oxygen Radical Absorbance Capacity (ORAC) assay against peroxynitrite; conditions: trolox equivalent
# Method: as §1
# [6] = Oxygen Radical Absorbance Capacity (ORAC) assay against oxide anion; conditions: trolox equivalent
# Method: as §1
# [7] = Oxygen Radical Absorbance Capacity (ORAC) assay against single oxygen; conditions: trolox equivalent
# Method: as §1
# [8] = ORAC 5.0 (sum of five ORAC results); conditions: trolox equivalent
# Method: Test Method: Oxygen Radical Absorbance Capacity (ORAC) Assay
# as §1, with “Specific” for “Test Method: Oxygen Radical Absorbance Capacity (ORAC) Assay Specific”, “sample.” for “sample. The results of ORAC are expressed as micromole trolox equivalent (μmole TE)/gram. Trolox is a vitamin E analog, which is an antioxidant standard substance.”
# Note: There are 5 main reactive oxygen species (ROS) in the human body: peroxy radicals, hydroxyl radicals, peroxynitrite, superoxide anions and singlet oxygen.
# The results of ORAC are expressed as micromole trolox equivalent (μmole TE)/gram. Trolox is a vitamin E analog, which is an antioxidant standard substance.
# Solubility in water = type: physicochemical; conditions: extracted α-mangostin
smiles,measurement,setting,value
COc1c(O)cc2oc3cc(O)c(CC=C(C)C)c(O)c3c(=O)c2c1CC=C(C)C [α-mangostin],UV absorption (in words),[1],relatively strong absorption from the UVB range of 290-320 nm to the UVA range of 320-400 nm
same,M value,[2]; Day 1,5.77
same,M value,[2]; Day 2,12.31
same,inhibitory effect on the photolysis of butyl methoxydibenzoylmethane (in words),[2]; sunlight,very good inhibitory effect
same,Inhibition rate of α-mangostin (photolysis inhibition rate),"[2]; sunlight, light exposure time 1 d, 20 μg/ml each",84.3%
same,Inhibition rate of α-mangostin (photolysis inhibition rate),"[2]; sunlight, light exposure time 2 d",82.9%
same,Inhibition rate of α-mangostin (photolysis inhibition rate),"[2]; sunlight, light exposure time 3 d",82.1%
same,Inhibition rate of α-mangostin (photolysis inhibition rate),"[2]; sunlight, light exposure time 4 d",80.5%
same,Inhibition rate of α-mangostin (photolysis inhibition rate),"[2]; sunlight, light exposure time 5 d",76.4%
same,ORAC against peroxyl radicals,[3],"8,704 μmole TE/gram"
same,ORAC against hydroxyl radicals,[4],"9,055 μmole TE/gram"
same,ORAC against peroxynitrite,[5],404 μmole TE/gram
same,ORAC against oxide anion,[6],"13,043 μmole TE/gram"
same,ORAC against single oxygen,[7],262 μmole TE/gram
same,ORAC 5.0 (sum of above),[8],"31,468 μmole TE/gram"
same,solubility in water (in words),Solubility in water,poor solubility in water
